Assays:
[1] = target: T1, highly purified PLA₂ (Homo sapiens, UniProt P14555); assay: effect of SDS on rate of hydrolysis of phosphatidylcholine (Shakir's method); assay type: biochemical; settings: of initial enzyme activity
T1 construct: from tissue; host or cells: pooled synovial fluid (CM Sephadex C50, Sephadex G75, preparative SDS-PAGE)
T1 sequence (P14555 21-144): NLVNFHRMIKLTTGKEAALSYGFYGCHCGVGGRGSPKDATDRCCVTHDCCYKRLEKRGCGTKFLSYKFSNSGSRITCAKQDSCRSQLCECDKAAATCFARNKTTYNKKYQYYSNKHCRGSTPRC
Description: Determination of phospholipase activities towards the radiolabeled synthetic substrates, dipalmitoylphosphatidylcholine, and 2-linoleoyl-1-palmitoylphosphatidylethanolamine, was carried out as described by Shakir, (1981) Anal Biochim 114:64-70. Standard incubation mixtures contained 750 nmol of phospholipid, 2 mM CaCl₂, 2 mM sodium deoxycholate (DOC), 0.09% Triton X-100, and enzyme protein in 0.1 M Tris-HCl buffer in a total volume of 400 µl. Incubations were carried out at optimal pH (see below) for 1 h at 37°C in a shaking water bath. The reaction was stopped by addition of 2.0 ml of n-heptane-isopropanol-1 N sulfuric acid (1:4:0.1, v/v/v). Released fatty acids were extracted by the method of Shakir, (1981) Anal Biochim 114:64-70. PLA₂ activity is expressed as nmol of released fatty acid per mg of protein per h.
The effect of SDS on the rate of hydrolysis of phosphatidylcholine by highly purified PLA₂ was studied using Shakir's method, supra. SDS inhibited PLA₂ activity on a concentration-dependent manner. Inhibition of PLA₂ was 94 and 7% of initial enzyme activity at SDS concentrations of 1 mg/ml and 0.1 mg/ml, respectively. In evaluating the utility of preparative SDS-PAGE, recovery of enzyme from the slab gel was consistently between 95-100% of the total enzyme applied to the gel.

[2] = tested on: sPLA₂ type B; assay: effect of Tris or Na deoxycholate on hydrolytic activity; assay type: biochemical, human
[3] = target: sPLA₂ type A (Homo sapiens, UniProt P14555); settings: 0.5 M Tris

Compound: CCCCCCCCCCCCOS(=O)(=O)[O-].[Na+] [SDS, sodium dodecyl sulfate]
- inhibition at 100 µg/mL ([1]; SDS 0.1 mg/ml): 7%
- inhibition at 1000 µg/mL ([1]; SDS 1 mg/ml): 94%

Compound: NC(CO)(CO)CO [Tris]
- effect on hydrolytic activity of type B relative to type A ([2]; 0.5 M Tris): considerable stimulation
- effect on sPLA₂ type A activity [3]: inhibited

Compound: sodium deoxycholate [Na deoxycholate]
- effect on hydrolytic activity of type B relative to type A ([2]; 0.1% Na deoxycholate): considerable stimulation
